# Tests used:
# Format in all cases: cell-based
# [1] = system: Jatropha curcas somatic embryo explants; assay: Re-initiation of somatic embryogenesis from matured somatic embryos on solid DGA and derivative media; conditions: for production of secondary somatic embryos and embryogenic calli: supplementation in solid DGA-type medium
# Description: Somatic embryos were matured in 2,4-D-free liquid MS medium and hypocotyl-root apex tissues were excised from somatic embryos larger than 0.5 cm. Those smaller than 0.5 cm were cultured intact. The explants were cultured in various DGA or its derivative solid medium. […] 2,4-D and kinetin could be added as optional supplements (not shown).
# [2] = system: Jatropha curcas somatic embryos; assay: Effect of abscisic acid in maturation media on germination; conditions: ABA 0-5 mg/l in DGA or EGA media or variants
# Description: To further explore methods to improve germination, abscisic acid (ABA) between 0-5 mg/l was supplemented in DGA or EGA media or their variants with 10-30 g/l sucrose and 20-60 g/1 maltose. […] Examples of the effects are shown in Table 10, where 20-30 TISEs were transferred to various media listed below. Except in ¼ strength MS medium, few somatic embryos germinated without GA3. […] Reducing the strength of basal salts was likewise beneficial to germination of somatic embryos.
# [3] = system: Jatropha curcas immature embryo and endosperm explants; assay: Effect of kinetin on TISE and TIISE formation; conditions: for TIISE (%) >5 SE / TIISE (%) >10 SE / TIISE (%) Total / TISE (%): 5 mg/l 2,4-D, 6 weeks, then DGA 4 weeks
# Description: Developing fruits were surface-sterilized and dissected to yield 120 immature embryos that were shorter than 1.5 cm in length. After cutting into halves, the explants were cultured in media with a series of kinetin concentrations. On the 5th day, the endosperm tissues were separated from the embryos, further reduced into small pieces of about 0.25 cm^2 and transferred to the fresh medium with the same kinetin concentrations. After one subcultures (6 weeks in total), the calli were transferred to DGA medium and cultured for one month. Twenty immature embryos were used in each treatment. It was observed that TISEs were almost exclusively formed on endosperm tissues where the embryos had been detached after three's culture.
# [4] = system: Jatropha curcas somatic embryos (TISEs); assay: Effect of GA3 on germination of somatic embryos; conditions: for Hypocotyl Extension % / Root Growth % / Viable Germination SE % / Hypocotyl Extension SE Count / Root Growth SE Count / Viable Germination SE Count: three weeks; for Hypocotyl Extension SE Count / Root Growth SE Count / Viable Germination SE Count: 30 explants;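 on all read-outs here: groups of 20–30 TISEs per medium were moved onto each medium and scored for germination traits, with GA3-free media as the comparison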
# [5] = system: Jatropha curcas embryogenic calli; assay: Embryogenic liquid suspension culture; conditions: KNO3 increased to 1.9 g/l to 3.8 g/l
# Description: FIGS. 5A-5D show embryogenic liquid suspension culture. About 50 mg embryogenic calli produced in solid DGA medium were inoculated in 20 ml modified DGA liquid media. Embryos larger than 2 mm were removed before inoculation. Subculture was done every two weeks. Photos were taken after 2 subcultures. FIG. 5A: 20 g/l sucrose, 1 g/l glutamine, 0.5 g/l asparagine, no 2,4-D. FIG. 5B: 20 g/l sucrose, 1 g/l glutamine, 0.5 g/l asparagine, 0.2 g/1 2,4-D. FIG. 5C: 30 g/l sucrose, 1 g/l glutamine, 0.5 g/l asparagine, 0.2 g/1 2,4-D. FIG. 5D: 20 g/l sucrose, 1 g/l glutamine, 0.5 g/l asparagine, 1 g/1 2,4-D. Arrow indicates the non-embryogenic ball-shaped calli. Scale bar represents 1 cm.
# Liquid cultures were performed in 65 mm plastic cylinder containers or 250 ml glass conical flasks that were placed in shakers set at 80 rpm, 28° C. constant temperature and 16-8 hours day-light cycles.
# Effects 2,4-D and carbon source on establishment of somatic embryogenic liquid suspension culture was investigated. […] At sucrose level ranging from 10-30 g/l, continued culture lead to maturation of the somatic embryo with no new initiation of secondary embryos (FIG. 5A). The somatic embryos thus produced share good synchrony and are excellent materials for re-induction of TIISEs (Refer to Example 13). […] The suspension cultures were stable for months if large embryos were removed. Further, sucrose concentration needs to be reduced below about 20 g/l (compare FIGS. 5B and 5C).
# [6] = Full strength MS salt and B5 vitamins, GA3 2 mg/L
# [7] = Full strength MS salt and B5 vitamins, GA3 3 mg/L
# [8] = ¼ Strength MS salt and B5 vitamins, GA3 2 mg/L
# [9] = ¼ Strength MS salt and B5 vitamins, GA3 3 mg/L
# [10] = ½ Strength MS salt and B5 vitamins, GA3 2 mg/L
# [11] = ½ Strength MS salt and B5 vitamins, GA3 3 mg/L
structure (smiles),measurement,setting,value
NC(=O)CC[C@H](N)C(=O)O [glutamine],production of secondary somatic embryos and embryogenic calli,[1],greatly improved production of secondary somatic embryos and embryogenenic calli
NC(=O)C[C@H](N)C(=O)O [asparagine],production of secondary somatic embryos and embryogenic calli,[1],greatly improved production of secondary somatic embryos and embryogenenic calli
CC1=CC(=O)CC(C)(C)[C@@]1(O)/C=C/C(C)=C\C(=O)O [abscisic acid],plantlet abnormality,[2],plantlet abnormality was apparently increased
same,improvement of germination,[2]; germination in MS medium,Improvement of germination in MS medium was not observed
"c1coc(CNc2ncnc3[nH]cnc23)c1 [Kinetin, kinetin]",TIISE (%) >5 SE,[3]; Kinetin 0.05 mg/l,15%
same,TIISE (%) >10 SE,[3]; Kinetin 0.05 mg/l,0%
same,TIISE (%) Total,[3]; Kinetin 0.05 mg/l,25%
same,TISE (%),[3]; Kinetin 0.05 mg/l,35%
same,TIISE (%) >5 SE,[3]; Kinetin 0.1 mg/l,15%
same,TIISE (%) >10 SE,[3]; Kinetin 0.1 mg/l,5%
same,TIISE (%) Total,[3]; Kinetin 0.1 mg/l,30%
same,TISE (%),[3]; Kinetin 0.1 mg/l,35%
same,TIISE (%) >5 SE,[3]; Kinetin 0.2 mg/l,15%
same,TIISE (%) >10 SE,[3]; Kinetin 0.2 mg/l,0%
same,TIISE (%) Total,[3]; Kinetin 0.2 mg/l,30%
same,TISE (%),[3]; Kinetin 0.2 mg/l,40%
same,TIISE (%) >5 SE,[3]; Kinetin 0.5 mg/l,10%
same,TIISE (%) >10 SE,[3]; Kinetin 0.5 mg/l,5%
same,TIISE (%) Total,[3]; Kinetin 0.5 mg/l,20%
same,TISE (%),[3]; Kinetin 0.5 mg/l,25%
same,TIISE (%) >5 SE,[3]; Kinetin 1 mg/l,0%
same,TIISE (%) >10 SE,[3]; Kinetin 1 mg/l,0%
same,TIISE (%) Total,[3]; Kinetin 1 mg/l,15%
same,TISE (%),[3]; Kinetin 1 mg/l,45%
same,TIISEs formation,[3]; kinetin 0-1 mg/l,appeared to negatively affect TIISEs formation
same,induction of TISEs,[3]; kinetin 0-1 mg/l,played little role in induction of TISEs
"C=C1C[C@]23C[C@@]1(O)CC[C@H]2[C@@]12C=C[C@H](O)[C@@](C)(C(=O)O1)[C@H]2[C@@H]3C(=O)O [GA3, gibberellic acid]",Hypocotyl Extension %,[4]; [6],30%
same,Root Growth %,[4]; [6],53%
same,Viable Germination SE %,[4]; [6],30%
same,Hypocotyl Extension SE Count,[4]; [6],16
same,Root Growth SE Count,[4]; [6],16
same,Viable Germination SE Count,[4]; [6],9
same,Hypocotyl Extension %,[4]; [7],44%
same,Root Growth %,[4]; [7],37%
same,Viable Germination SE %,[4]; [7],5%
same,Hypocotyl Extension SE Count,[4]; [7],16
same,Root Growth SE Count,[4]; [7],11
same,Viable Germination SE Count,[4]; [7],2
same,germination of somatic embryos,[4]; many media tested,significantly improved germination in many media tested
same,Hypocotyl Extension %,[4]; [8],32%
same,Root Growth %,[4]; [8],43%
same,Viable Germination SE %,[4]; [8],19%
same,Hypocotyl Extension SE Count,[4]; [8],14
same,Root Growth SE Count,[4]; [8],13
same,Viable Germination SE Count,[4]; [8],6
same,Hypocotyl Extension %,[4]; [9],26%
same,Root Growth %,[4]; [9],47%
same,Viable Germination SE %,[4]; [9],8%
same,Hypocotyl Extension SE Count,[4]; [9],12
same,Root Growth SE Count,[4]; [9],14
same,Viable Germination SE Count,[4]; [9],2
same,Hypocotyl Extension %,[4]; [10],34%
same,Root Growth %,[4]; [10],27%
same,Viable Germination SE %,[4]; [10],21%
same,Hypocotyl Extension SE Count,[4]; [10],9
same,Root Growth SE Count,[4]; [10],8
same,Viable Germination SE Count,[4]; [10],7
same,Hypocotyl Extension %,[4]; [11],26%
same,Root Growth %,[4]; [11],53%
same,Viable Germination SE %,[4]; [11],23%
same,Hypocotyl Extension SE Count,[4]; [11],14
same,Root Growth SE Count,[4]; [11],16
same,Viable Germination SE Count,[4]; [11],6
O=[N+]([O-])[O-].[K+] [KNO3],embryo differentiation and maturation,[1]; increase in KNO3 in modified DGA solid medium,favored embryo differentiation but inhibited maturation
same,maintenance of liquid suspension culture,[5],facilitated maintaining the liquid suspension culture at early stages of embryogenesis

# From patent US8691576B2, “Regeneration and mass propagation of Jatropha curcas through somatic embryogenesis” (Joil (S) Pte Ltd., priority 2008, dated 2014)
